Assay results as given in patent US20220220106A1, “QUINOLINE COMPOUNDS AND PHARMACEUTICAL COMPOSITIONS AND USES THEREOF” (Academy of Military Medical Sciences, priority 2019, published 2022).
pIC50: −log10 of the molar value.

Key:
mTOR kinase = target: T1, mTOR kinase (Homo sapiens, UniProt P42345); assay: In vitro inhibitory activity on mTOR kinase (TR-FRET, GFP-4E-BP1 substrate); format: biochemical; settings: for pIC50: 0.5 μg/mL mTOR, 0.4 μM GFP-4E-BP1, 3 μM ATP
T1 construct: purchased Thermo Fisher PV4753
Description: Preparation of Reaction Buffers:
Basic buffer composition: 50 mM (mmol/L) HEPES (pH 7.5), 1 mM EGTA, 0.01% Tween-20, 10 mM MnCl2, 2 mM DTT (diluted from 500 mM before used).
(2) mTOR kinase buffer solution: 1650 μL of 2.5×mTOR kinase buffer solution was composed of 1640.2 μL of 1× basic buffer and 9.8 μL of mTOR (0.21 mg/mL stock solution), and the final concentration was 0.5 μg/mL.
(3) Detection buffer solution: 3960 μL of 2× detection buffer solution was composed of 3797.1 μL of TR-FRET buffer diluent (purchased from Thermo Fisher, catalog number: PV3574), 4.5 μL of Tb-anti-p4E-BP1 antibody (3.49 μM stock solution, purchased from Thermo Fisher, catalog number: PV4757) and 158 μL of EDTA (500 mM stock solution), and the final concentrations were 2 nM Tb-anti-p4E-BP1 antibody and 10 mM EDTA.
(1) 20 μL of 100% DMSO solution containing 5 mM compound to be tested was added to a 96-well plate.
(2) The compound was serially diluted 3 times in DMSO.
(3) 1 μL of the compound in the previous step was taken, diluted with 19 μL of mTOR kinase buffer, and transferred to another 96-well plate.
(4) 4 μL of mTOR kinase solution (purchased from Thermo Fisher, catalog number: PV4753) was added to a 384-well plate.
(5) 2 μL of the compound in G was taken out and added to the 384-well plate with mTOR kinase, and incubated at room temperature for 15 minutes.
(6) 4 μL of substrate solution was added to initiate the reaction.
The final concentrations of mTOR reaction solution were: 0.5 μg/mL mTOR, 0.4 μM GFP-4E-BP1, 3 μM ATP.
The final concentration of the DMSO solution was 1%.
(7) Incubation was performed for 60 minutes at room temperature.
(8) 10 μL of detection buffer was added. The final concentrations were 2 nM Tb-anti-p4E-BP1 antibody and 10 mM EDTA.
(9) Incubation was performed for 30 minutes at room temperature.
(10) TR-FRET value was read on MD5 multi-mode plate reader (Molecular Devices). The excitation wavelength was 340 nm, the emission wavelength 1 was 495 nm, and the emission wavelength 2 was 520 nm. The ratio of 520 nm/495 nm readings was calculated as TR-FRET value.
IC50 of compound was fitted by nonlinear regression equation:
Y=Bottom+(Top-Bottom)/(1+10^((LogIC50-X)*HillSlope));
X: common logarithm value of compound concentration; Y: TR-FRET value (520 nm/495 nm).

mTORC2 = target: T2, mTORC2 (Homo sapiens, UniProt P42345); assay: Western blot, phosphorylation of Ser473 of Akt in RD cells (mTORC2 inhibition); format: cell-based; settings: 20 μM, 2 hours, Western blot (FIG. 1)
T2 construct: endogenous in cells; host or cells: RD cells
Description: In order to test the inhibitory activity of the synthesized compounds on the two mTOR complexes, the inhibitory activity experiments of mTORC1 and mTORC2 were carried out. Since mTORC1 and mTORC2 exerted their function by activating the phosphorylation of downstream substrates, the inhibitory activity of the compounds on mTORC1 and mTORC2 could be determined by detecting the phosphorylation levels of the Thr389 site of mTORC1 downstream substrate p70S6K1 and the Ser473 site of mTORC2 downstream substrate Akt.
Pretreatment of Compound:
(1) RD cells were cultured in DMEM medium containing 10% FBS and 1×PS (penicillin and streptomycin were at concentrations 100 IU and 100 μg/mL, respectively) at 37° C. and 5% CO2.
(2) The RD cells (5×10^5 cells/2 mL medium) were inoculated into a 6-well plate and incubated at 37° C. and 5% CO2 for 24 hours.
(3) The cells were washed once with PBS, and the cells were cultured in serum-free medium without nutrients overnight.
(4) Formulation of compounds: […]
Preparation of insulin medium: Insulin was diluted in DMEM medium containing 10% FBS and 1×PS so that the final concentration of insulin was 167 nM.
Pretreatment of compound to be tested: The compound was dissolved in DMSO so that the concentration of the test compound was 20 mM, and the compound was diluted in 167 nM insulin medium to reach a concentration of 20 μM.
Preparation of rapamycin solution: Rapamycin was dissolved in DMSO to a concentration of 10 mM, and the rapamycin was diluted in 167 nM insulin medium to reach a concentration of 20 μM.
(5) The serum-free medium in each well was removed.
(6) 2 mL of complete medium containing DMSO was added to each well as a control carrier. The final concentration of DMSO was 0.2%.
(7) 2 mL of 20 μM rapamycin solution and 20 μM the compound to be tested were added to the designated wells, respectively. The final concentration of DMSO was 0.2%.
(8) The cells were incubated for 2 hours at 37° C. and 5% CO2.
Protein extraction and concentration determination:
(1) The cells were washed once with refrigerated PBS, and then the PBS was discarded.
(2) 150 μL of cell extraction buffer (RIPA, […], catalog number: C1053) was transferred into each well to lyse the cells, and then the resulting cell solution were incubated on ice for 30 minutes.
(3) Centrifugation was performed at 14000 rpm (13000× g) for 30 minutes at 4° C.
(4) The supernatant was transferred into a new eppendorf tube, and the cell lysate was stored at −80° C. before testing.
(5) The protein concentration was determined by BCA method.
Preparation of Buffer Solutions:
(1) 100× Protease inhibitor (Beyotime, catalog number: P1005): 1 mL of redistilled water was added to the protease inhibitor and stirred gently until the solid was completely dissolved.
(2) Lysis Buffer: […] of 100× protease inhibitor and 2× phosphatase inhibitor Cocktails PhosSTOP (Beyotime, catalog number: P1082) were added to 100 mL of the cell extract, and stirred gently until it was completely dissolved.
(3) Electrophoresis Running Buffer:
10×MOPS buffer: 52.33 g of MOPS, 30.29 g of Tris base, 10 mL of 0.5 mol/L EDTA (pH 8.5) and 5 g of SDS was dissolved in 400 mL of redistilled water, stirred to dissolve, and the pH was adjusted to 7.5, then redistilled water was added again to reach a volume of 500 mL; 1×MOPS: 100 mL of 10×MOPS was diluted with redistilled water to 1000 mL.
(4) 1× Transfer Buffer: […] of 10× transfer buffer (144 g of glucine, 30.3 g of trisbase, and distilled water were mixed to reach a volume of 1 L) and 400 mL of methanol were dissolved in 1500 mL of redistilled water, and then the redistilled water was added to reach a volume of 2000 mL. […]

| Structure (SMILES) | inhibitory activity on mTOR kinase, in words (mTOR kinase) | pIC50 (mTOR kinase) | phosphorylation expression level of Akt (mTORC2) |
| --- | --- | --- | --- |
| O=c1ccc2cnc3ccc(-c4ccc5ncccc5c4)cc3c2n1-c1cccc(C(F)(F)F)c1 [HTL-6-47, 9-(6-quinolyl)-2-oxo-1-[3-(trifluoromethyl)phenyl]-1,2-dihydrobenzo[h][1,6]naphthyridine] | excellent inhibitory activity | 8.21 | significantly down-regulate |
| CCCC(=O)Nc1ccc(-c2ccc3ncc4ccc(=O)n(-c5cccc(C(F)(F)F)c5)c4c3c2)cn1 [HTL-7-05, 9-[3-(6-butyrylamino)pyridyl]-2-oxo-1-[3-(trifluoromethyl)phenyl]-1,2-dihydrobenzo[h][1,6]naphthyridine] | – | 7.41 | significantly down-regulate |
| O=C(Cc1ccccc1)Nc1ccc(-c2ccc3ncc4ccc(=O)n(-c5cccc(C(F)(F)F)c5)c4c3c2)cn1 [HTL-7-10, 9-[3-(6-phenylacetylamino)pyridyl]-2-oxo-1-[3-(trifluoromethyl)phenyl]-1,2-dihydrobenzo[h][1,6]naphthyridine] | – | 7.46 | significantly down-regulate |
| CC(C)(C)OC(=O)Nc1ccc(-c2ccc3ncc4ccc(=O)n(-c5cccc(C(F)(F)F)c5)c4c3c2)cn1 [HTL-7-21, 9-[3-(6-tert-butoxycarbonylamino)pyridyl]-2-oxo-1-[3-(trifluoromethyl)phenyl]-1,2-dihydrobenzo[h][1,6]naphthyridine] | – | 7.93 | significantly down-regulate |
| O=c1ccc2cnc3ccc(-c4ccc(N5CCCC5)nc4)cc3c2n1-c1cccc(C(F)(F)F)c1 [HTL-7-20, 9-[3-(6-pyrrolidinyl)pyridyl]-2-oxo-1-[3-(trifluoromethyl)phenyl]-1,2-dihydrobenzo[h][1,6]naphthyridine] | – | 7.95 | significantly down-regulate |
| COc1ncc(-c2ccc3ncc4ccc(=O)n(-c5cccc(C(F)(F)F)c5)c4c3c2)cn1 [HTL-7-06, 9-[5-(2-methoxy)pyrimidyl]-2-oxo-1-[3-(trifluoromethyl)phenyl]-1,2-dihydrobenzo[h][1,6]naphthyridine] | excellent inhibitory activity | 8.32 | significantly down-regulate |
| CN1CCN(c2ccc(-c3ccc4ncc5ccc(=O)n(-c6cccc(C(F)(F)F)c6)c5c4c3)cn2)CC1 [HTL-7-17, 9-{3-[6-(4-methylpiperazin-1-yl)pyridyl]}-2-oxo-1-[3-(trifluoromethyl)phenyl]-1,2-dihydrobenzo[h][1,6]naphthyridine] | excellent inhibitory activity | 8.94 | significantly down-regulate |
| COc1ccc(-c2ccc3ncc4ccc(=O)n(-c5cccc(C(F)(F)F)c5)c4c3c2)cn1 [HTL-7-03, 9-[3-(6-methoxy)pyridyl]-2-oxo-1-[3-(trifluoromethyl)phenyl]-1,2-dihydrobenzo[h][1,6]naphthyridine] | excellent inhibitory activity | 8.14 | significantly down-regulate |
| O=c1ccc2cnc3ccc(-c4cc[nH]n4)cc3c2n1-c1cccc(C(F)(F)F)c1 [HTL-6-50, 9-[(1H)-3-pyrazolyl]-2-oxo-1-[3-(trifluoromethyl)phenyl]-1,2-dihydrobenzo[h][1,6]naphthyridine] | moderate inhibitory activity | 6.80 | significantly down-regulate |
| CC(=O)/C=C/c1cnc2ccc(-c3ccc(C)nc3)cc2c1Nc1cccc(C(F)(F)F)c1 [HTL-2-38, (E)-6-[3-(6-methyl)pyridyl]-4-[3-(trifluoromethyl)phenyl]aminoquinoline-3-butenone] | weak inhibitory activity | 5.99 | – |
| Nc1cccc(Nc2ccc3ncc4ccc(=O)n(-c5cccc(C(F)(F)F)c5)c4c3c2)n1 [HTL-6-12, 9-[2-(6-aminopyridyl)]imino-2-oxo-1-[3-(trifluoromethyl)phenyl]-1,2-dihydrobenzo[h][1,6]naphthyridine] | – | 7.17 | significantly down-regulate |
| O=c1ccc2cnc3ccc(-c4cccnc4F)cc3c2n1-c1cccc(C(F)(F)F)c1 [HTL-6-48, 9-[3-(2-fluoro)pyridyl]-2-oxo-1-[3-(trifluoromethyl)phenyl]-1,2-dihydrobenzo [h][1,6]naphthyridine] | – | 7.50 | significantly down-regulate |
| NC(=O)c1ccc(-c2ccc3ncc4oc(=O)n(-c5cccc(C(F)(F)F)c5)c4c3c2)cc1 [HTL-5-21, 8-(4-carbamoyl)phenyl-1-[3-(trifluoromethyl)phenyl]oxazolo[5,4-c]quinolin-2(1H)-one] | better inhibitory activity | 7.82 | significantly down-regulate |
| Cc1ncccc1-c1ccc2ncc3ccc(=O)n(-c4cccc(C(F)(F)F)c4)c3c2c1 [HTL-6-49, 9-[3-(2-methyl)pyridyl]-2-oxo-1-[3-(trifluoromethyl)phenyl]-1,2-dihydrobenzo[h][1,6]naphthyridine] | – | 7.92 | significantly down-regulate |
| NC(=O)/C=C/c1ccc2ncc3oc(=O)n(-c4cccc(C(F)(F)F)c4)c3c2c1 [HTL-6-30, (E)-8-(2-carbamoyl-vinyl)-1-[3-(trifluoromethyl)phenyl]oxazolo[5,4-c]quinolin-2(1H)-one] | better inhibitory activity | 7.32 | – |
